Laboratory results reported in patent US12612384B2, “Heterocyclic CYP4A inhibitor compounds and compositions thereof” (MBD CO., LTD., priority 2021, dated 2026).

Target: T1, CYP4A (Homo sapiens, UniProt Q02928)
T1 construct: purchased; host or cells: bacterial membranes ('bactosome')
T1 sequence (Q02928 5-519): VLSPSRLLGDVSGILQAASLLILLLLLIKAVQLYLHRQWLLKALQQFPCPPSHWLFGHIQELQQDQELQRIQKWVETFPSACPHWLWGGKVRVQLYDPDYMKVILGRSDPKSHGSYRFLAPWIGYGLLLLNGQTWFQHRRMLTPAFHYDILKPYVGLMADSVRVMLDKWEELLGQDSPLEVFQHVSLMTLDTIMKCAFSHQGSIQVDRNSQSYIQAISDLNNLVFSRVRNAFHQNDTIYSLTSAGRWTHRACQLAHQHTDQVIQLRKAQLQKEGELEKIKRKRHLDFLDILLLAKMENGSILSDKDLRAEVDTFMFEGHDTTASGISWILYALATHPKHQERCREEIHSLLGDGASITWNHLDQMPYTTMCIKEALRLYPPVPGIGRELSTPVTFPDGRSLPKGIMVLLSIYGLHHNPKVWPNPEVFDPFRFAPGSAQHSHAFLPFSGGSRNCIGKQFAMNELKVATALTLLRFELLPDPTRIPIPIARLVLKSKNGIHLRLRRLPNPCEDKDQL
Assay: CYP4A enzyme assay (luminescence, Luciferin-ME)
Type: biochemical
Conditions: Compound concentration 5 μM; 50%-70%; read-out: % Inhibition 50%-70%
Method: The CYP4A inhibitory activity of the above compounds of the examples was measured. The reagents used in the experiment were commercially available, and were prepared and used when necessary. The device used for measuring activity was SpectraMax of MOLECULAR DEVICES.
CYP4A bactosome and the compounds to be evaluated (5 μM) were each diluted in assay buffer (100 mM KPO4, 0.1% BSA, 1 mM DTT) and mixed in a 384 well plate (white opaque polystyrene nontreated flat-bottom well), and reaction was carried out at room temperature for 15 minutes. To induce CYP4A reaction, 5 mM Luciferin-ME, NADPH Regeneration system (10× sol. A, 20× sol. B in assay buffer, Cat. Number: V865B, Promega) were sequentially added and mixed, and the reaction was carried out at room temperature for 30 minutes. Then, Luciferin Detection reagent was added thereto and reacted at room temperature for 15 minutes to stop the CYP4A reaction and induce a luminescence reaction. Finally, after measuring the luminescence value using a microplate reader, the inhibition of CYP4A activity by the compounds was evaluated by comparing the luminescence value from each well.

inhibition at 5 µM [%] | SMILES
50 to 70 | Cn1cnnc1CN1CC[C@H](C(=O)N2CCN(c3ccnc4cc(F)ccc34)CC2)C1 [Example 154, (S)-(4-(7-fluoroquinolin-4-yl)piperazin-1-yl)(1-((4-methyl-4H-1,2,4-triazol-3-yl)methyl)pyrrolidin-3-yl)methanone]
50 to 70 | Cc1ccc(S(=O)(=O)N2CCCC(C(=O)N3CCN(c4ncnc5ccccc45)CC3)C2)cc1 (centres unmarked) [Example 75, (4-(quinazolin-4-yl)piperazin-1-yl)(1-tosylpiperidin-3-yl)methanone]
50 to 70 | O=C(C1CCCN(S(=O)(=O)CCCO)C1)N1CCN(c2ccnc3cc(F)ccc23)CC1 (centres unmarked) [Example 131, (4-(7-fluoroquinolin-4-yl)piperazin-1-yl)(1-((3-hydroxypropyl)sulfonyl)piperidin-3-yl)methanone]
50 to 70 | COc1ccc2c(N3CCN(C(=O)C4CCCN(C(=O)c5ccccc5)C4)CC3)ccnc2c1 (centres unmarked) [Example 91, (1-benzoylpiperidin-3-yl)(4-(7-methoxyquinolin-4-yl)piperazin-1-yl)methanone]

Same assay, conditions: Compound concentration 5 μM; 70%-90%; read-out: % Inhibition 70%-90%

inhibition at 5 µM [%] | SMILES
70 to 90 | O=C(C1CCN(S(=O)(=O)c2ccc(Cl)nc2)C1)N1CCN(c2ccnc3ccccc23)CC1 (centres unmarked) [Example 24, (1-((6-chloropyridin-3-yl)sulfonyl)pyrrolidin-3-yl)(4-(quinolin-4-yl)piperazin-1-yl)methanone]
70 to 90 | O=C(c1ccccc1)N1CCCC(C(=O)N2CCN(c3ccnc4cc(Cl)ccc34)CC2)C1 (centres unmarked) [Example 85, (4-(7-chloroquinolin-4-yl)piperazin-1-yl)(1-(phenylcarbonyl)piperidin-3-yl)methanone]
70 to 90 | CC(=O)Nc1ccc(C(=O)N2CCCC(C(=O)N3CCN(c4ccnc5ccccc45)CC3)C2)cc1 (centres unmarked) [Example 111, N-(4-(3-(1-(quinolin-4-yl)piperazine-4-carbonyl)piperidine-1-carbonyl)phenyl)acetamide]
70 to 90 | O=C(C1CCN(Cc2nnn[nH]2)C1)N1CCN(c2ccnc3cc(F)ccc23)CC1 (centres unmarked) [Example 155, (1-((1H-tetrazol-5-yl)methyl)pyrrolidin-3-yl)(4-(7-fluoroquinolin-4-yl)piperazin-1-yl)methanone]

Same assay, conditions: Compound concentration 5 μM; Greater than 90%; read-out: % Inhibition Greater than 90%

inhibition at 5 µM [%] | SMILES
> 90 | O=C([C@H]1CCN(S(=O)(=O)c2nccn2CCO)C1)N1CCN(c2ccnc3cc(F)ccc23)CC1 [Example 148, (S)-(4-(7-fluoroquinolin-4-yl)piperazin-1-yl)(1-((1-(2-hydroxyethyl)-1H-imidazol-2-yl)sulfonyl)pyrrolidin-3-yl)methanone]
> 90 | CC(=O)Nc1ccc(S(=O)(=O)N2CC[C@@H](C(=O)N3CCN(c4ccnc5ccccc45)CC3)C2)cc1 [Example 22, (R)—N-(4-((3-(4-(quinolin-4-yl)piperazine-1-carbonyl)pyrrolidin-1-yl)sulfonyl)phenyl)acetamide]
> 90 | O=C(C1CCCN(S(=O)(=O)c2ccc(Cl)nc2)C1)N1CCN(c2ccnc3cc(F)ccc23)CC1 (centres unmarked) [Example 59, (1-((6-chloropyridin-3-yl)sulfonyl)piperidin-3-yl)(4-(7-fluoroquinolin-4-yl)piperazin-1-yl)methanone]
> 90 | CN(C)c1ccc(S(=O)(=O)N2CCC(C(=O)N3CCN(c4ccnc5cc(F)ccc45)CC3)C2)cc1 (centres unmarked) [Example 3, (1-((4-(dimethylamino)phenyl)sulfonyl)pyrrolidin-3-yl)(4-(7-fluoroquinolin-4-yl)piperazin-1-yl)methanone]
> 90 | O=C([C@H]1CCN(S(=O)(=O)c2ncn(CCO)n2)C1)N1CCN(c2ccnc3cc(F)ccc23)CC1 [Example 140, (S)-(4-(7-fluoroquinolin-4-yl)piperazin-1-yl)(1-((1-(2-hydroxyethyl)-1H-1,2,4-triazol-3-yl)sulfonyl)pyrrolidin-3-yl)methanone]
> 90 | COCCn1cnc(S(=O)(=O)N2CC[C@H](C(=O)N3CCN(c4ccnc5cc(F)ccc45)CC3)C2)n1 [Example 143, (S)-(4-(7-fluoroquinolin-4-yl)piperazin-1-yl)(1-((1-(2-methoxyethyl)-1H-1,2,4-triazol-3-yl)sulfonyl)pyrrolidin-3-yl)methanone]
> 90 | O=C(C1CCN(S(=O)(=O)c2ncc[nH]2)C1)N1CCN(c2ccnc3ccccc23)CC1 (centres unmarked) [Example 42, (1-((1H-imidazol-2-yl)sulfonyl)pyrrolidin-3-yl)(4-(quinolin-4-yl)piperazin-1-yl)methanone]
> 90 | Cn1cc(S(=O)(=O)N2CCC(C(=O)N3CCN(c4ccnc5ccccc45)CC3)C2)cn1 (centres unmarked) [Example 44, (1-((1-methyl-1H-pyrazol-4-yl)sulfonyl)pyrrolidin-3-yl)(4-(quinolin-4-yl)piperazin-1-yl)methanone]
> 90 | CC(=O)Nc1nc(C)c(S(=O)(=O)N2CC[C@@H](C(=O)N3CCN(c4ccnc5ccccc45)CC3)C2)s1 [Example 48, (R)—N-(4-methyl-5-((3-(4-(quinolin-4-yl)piperazine-1-carbonyl)pyrrolidin-1-yl)sulfonyl)thiazol-2-yl)acetamide]
> 90 | O=C(C1CCN(S(=O)(=O)c2ccc(-c3cccnc3)cc2)C1)N1CCN(c2ccnc3ccccc23)CC1 (centres unmarked) [Example 32, (1-((4-(pyridin-3-yl)phenyl)sulfonyl)pyrrolidin-3-yl)(4-(quinolin-4-yl)piperazin-1-yl)methanone]
> 90 | CC(=O)Nc1ccc(C(=O)N2CCCC(C(=O)N3CCN(c4ccnc5ccccc45)CC3)C2)cc1 (centres unmarked) [Example 111, N-(4-(3-(1-(quinolin-4-yl)piperazine-4-carbonyl)piperidine-1-carbonyl)phenyl)acetamide]
> 90 | COCCn1ccnc1S(=O)(=O)N1CC[C@H](C(=O)N2CCN(c3ccnc4cc(F)ccc34)CC2)C1 [Example 149, (S)-(4-(7-fluoroquinolin-4-yl)piperazin-1-yl)(1-((1-(2-methoxyethyl)-1H-imidazol-2-yl)sulfonyl)pyrrolidin-3-yl)methanone]
> 90 | O=C(C1CCN(S(=O)(=O)c2ccc(-c3ccncc3)cc2)C1)N1CCN(c2ccnc3cc(F)ccc23)CC1 (centres unmarked) [Example 17, (4-(7-fluoroquinolin-4-yl)piperazin-1-yl)(1-((4-(pyridin-4-yl)phenyl)sulfonyl)pyrrolidin-3-yl)methanone]
> 90 | O=C(C1CN(S(=O)(=O)c2ccc(O)cc2)C1)N1CCN(c2ccnc3cc(F)ccc23)CC1 [Example 66, (4-(7-fluoroquinolin-4-yl)piperazin-1-yl)(1-((4-hydroxyphenyl)sulfonyl)azetidin-3-yl)methanone]
> 90 | CC(=O)Nc1ccc(C(=O)N2CCCC(C(=O)N3CCN(c4ccnc5cc(Cl)ccc45)CC3)C2)cc1 (centres unmarked) [Example 83, N-(4-(3-(1-(7-chloroquinolin-4-yl)piperazine-4-carbonyl)piperidine-1-carbonyl)phenyl)acetamide]
> 90 | O=C(C1CCN(S(=O)(=O)c2ccc(-c3ccncc3)nc2)C1)N1CCN(c2ccnc3ccccc23)CC1 (centres unmarked) [Example 26, (1-([2,4′-bipyridin]-5-ylsulfonyl)pyrrolidin-3-yl)(4-(quinolin-4-yl)piperazin-1-yl)methanone]
> 90 | COc1ccc2c(N3CCN(C(=O)[C@H]4CCN(S(=O)(=O)c5ncn[nH]5)C4)CC3)ccnc2c1 [Example 165, (S)-(1-((1H-1,2,4-triazol-5-yl)sulfonyl)pyrrolidin-3-yl)(4-(7-methoxyquinolin-4-yl)piperazin-1-yl)methanone]
> 90 | O=C(C1CCCN(S(=O)(=O)c2ccc(N3CCOCC3)nc2)C1)N1CCN(c2ccnc3cc(F)ccc23)CC1 (centres unmarked) [Example 61, (4-(7-fluoroquinolin-4-yl)piperazin-1-yl)(1-((6-morpholinopyridin-3-yl)sulfonyl)piperidin-3-yl)methanone]
> 90 | O=C(C1CCN(S(=O)(=O)c2ccc(-c3cccnc3)nc2)C1)N1CCN(c2ccnc3ccccc23)CC1 (centres unmarked) [Example 29, (1-([2,3′-bipyridin]-5-ylsulfonyl)pyrrolidin-3-yl)(4-(quinolin-4-yl)piperazin-1-yl)methanone]
> 90 | Cn1ccnc1S(=O)(=O)N1CCCC(C(=O)N2CCN(c3ccnc4cc(F)ccc34)CC2)C1 (centres unmarked) [Example 118, (4-(7-fluoroquinolin-4-yl)piperazin-1-yl)(1-(1-methyl-1H-imidazol-2-ylsulfonyl)piperidin-3-yl)methanone]

Same assay, conditions: Compound concentration 5 μM; Less than 50%; read-out: % Inhibition Less than 50%

inhibition at 5 µM [%] | SMILES
< 50 | Cc1ccc(S(=O)(=O)N2CCCC(C(=O)N3CCN(c4nc(C)nc5ccccc45)CC3)C2)cc1 (centres unmarked) [Example 80, (4-(2-methylquinazolin-4-yl)piperazin-1-yl)(1-tosylpiperidin-3-yl)methanone]
